The subject of data set [1] is neurotensin receptors. To be noted: in vivo; cited from earlier work.
In data set [2] the test system is CF-1 mice. The settings on record: mouse, in vivo.

Here are results for two substances from US7368432B2 (Xenome, Ltd., priority 1999, dated 2008).

With Contulakin-G, in data set [1], the “potency in inhibiting pain relative to neurotensin” value is given as “significantly more potent than neurotensin”.

NGVCCGYKLCHOC [Mar1]: the “motor impairment (rotarod)” value in data set [2] is given as “do not produce gross motor impairment or impair performance on the rotarod test”.
